Laboratory results as given in article PMC3174134, “Lucanthone and Its Derivative Hycanthone Inhibit Apurinic Endonuclease-1 (APE1) by Direct Protein Binding” (PLoS ONE, 2011).
pIC50: −log10 of the molar value. Read-outs that look alike come from different tables or passages of the source.

Tests used:
APE1 [1] = target: T1, APE1 (Homo sapiens, UniProt P27695); assay: APE1 expression and cleavage in U251 1-5 overexpressor cells pretreated with cycloheximide, Western blot; assay type: cell-based; settings: for Cleavage of APE1 (25 kDa fragment): 10 µg/ml cycloheximide 4 h, then 25-100 µM drug 2 h
Procedure: Total purified protein concentration was determined by the ratio of A280/A260. 250 ng of APE1 treated with lucanthone or hycanthone (0.05–100 µM) for 2 h at 37°C in final volume of 30 µl were mixed with an equal volume of gel loading buffer (0.001% bromophenol blue, 4% SDS, 10% 2-ME, 20% glycerol, and 125 mM Tris pH 6.8) and denatured at 95°C for 5 min. Total protein concentration in cell extracts was determined using the Bradford assay (BioRad, Hercules, CA) and 25 µg of total protein from soluble or insoluble cell fractions were mixed with an equal volume of gel loading buffer (0.001% bromophenol blue, 4% SDS, 10% 2-ME, 20% glycerol, and 125 mM Tris pH 6.8) and denatured at 95°C for 5 min. This mixture was separated by SDS-PAGE (4% stacking, 7.5% resolving gel) for 2–3 h at 40 mA on a BioRad MiniPROTEAN II Electrophoresis Cell. To detect proteins, proteins were transferred onto a trans-Blot nitrocellulose membrane (0.45 µm; BioRad) overnight at 4°C at 15 mA in standard Tris-Glycine buffer containing 20% ethanol. Membranes were probed using polyclonal anti-APE1 or polyclonal anti-©-tubulin at 1/1,000 dilution in TTBS (0.1% Tween 20 in TBS (pH 7.5)) with secondary, anti-rabbit HRP-conjugated antibody used at 1/30,000 dilution to detect APE1 and ©-tubulin protein control. Chemi-luminescence was developed using an ECL kit according to the manufacturer's instructions and detected by exposing the blot to HyperfilmECL for 30 s–3 min. (GE Healthcare Biosciences, Piscataway, NJ).
Western blotting was carried out by 7.5% SDS-PAGE of cell extracts (20 µg total protein per lane) either from APE1 overexpresser clone 5 pretreated with 2.5–200 µM concentration of lucanthone/CRT0044876 or recombinant APE1 for 2 h at 37°C in presence of protease inhibitor cocktail (2 tablets (Roche, # 11836153001) containing mixture of several protease inhibitors with broad inhibitory specificity for serine, cysteine and metalloproteases in all systems, dissolved in 20 ml of APE1 buffer). […]

APE1 [2] = target: T1, APE1; assay: APE1 endonuclease activity: incision of depurinated plasmid (pUC18) DNA; assay type: biochemical; design: the full length APE1 protein was successfully expressed and purified; made in house; host or cells: E. coli BL21/DE3
Procedure: APE1 endonuclease activity was determined using an assay that measures the conversion of plasmid DNA from supercoiled to relaxed form by incision at an abasic site [35]–[36]. Briefly, the substrate used was 200 ng of depurinated pUC18 DNA in 10 µl of 1× APE1 buffer containing 50 mM Hepes, pH 7.4, 150 mM KCl, 5 mM MgCl2 and 100 µg/ml of BSA in presence of different concentrations of the cell extract (1 µl containing 0–55 ng of total protein). Similar reactions mixtures were set up with untreated pUC18, which served as the internal control. This reaction mixture was incubated at 37°C for 15 min, and the reaction was stopped by addition of alkaline stop mix (0.25% bromocresol green in 0.25N NaOH, 50% glycerol) and left at room temperature for 10–15 min. Then the products were resolved on a 0.8% agarose gel in 40 mM Tris-acetate and 2 mM EDTA for 2 h. The gel was stained with ethidium bromide to visualize supercoiled and relaxed plasmid DNA and imaged with a digital imaging system and the area under the supercoiled and relaxed form was determined. Final calculations were done in femtomoles (fmol) of abasic sites incised/min/mg protein with normalization done using Pyruvate Kinase units (PKU) present in these extracts. Poisson distribution calculations were done on supercoiled and relaxed bands to estimate incisions per plasmid molecule and the resulting depurinated pUC18 had 1 AP site per molecule. The endonuclease activity inhibition by lucanthone was analyzed using standard Lineweaver-Burke Plot to determine if the inhibition was competitive or non-competitive.

APE1 [3] = target: T1, APE1; assay: EMSA (gel mobility shift) of APE1 DNA binding capacity with THF-containing substrate; assay type: biochemical; design: the full length APE1 protein was successfully expressed and purified; made in house; host or cells: E. coli BL21/DE3; settings: 100 µM drug preincubated with APE1 30 min
Procedure: In order to elucidate whether lucanthone and hycanthone could inhibit APE1 by interfering with APE1-DNA interaction through their DNA intercalation ability, we measured the DNA binding capacity of APE1 in the presence of lucanthone and hycanthone by incubating different concentrations of APE1 (10 nM and 25 nM) with 100 µM of lucanthone and/or hycanthone for 30 min and subsequently incubating the mixture with 25 nM of THF-containing substrate at 25°C in binding buffer (50 mM HEPES, pH 7.5, 150 mM NaCl, 0.1 mg/ml BSA, 0.5 mM EDTA and 1 mM DTT) for 30 min. THF stands for tetrahydrofuran that represents a synthetic abasic site. This is commonly inserted into an oligonucleotide substrate for measuring APE1 cleavage activity. 5′-incision of THF by APE1 results in a residue that mimics reduced 5′-deoxyribose phosphate group. Since THF group lacks the 1′-OH group, it blocks β-elimination that is required for mediating any dRP lyase activity. The sequence of the APE1 substrate with THF group is 5′[…]-3′ as described by Liu et al.
APE1-DNA complex was then separated from unbound substrate DNA by electrophoresis under native conditions in a 1% agarose-0.1% acrylamide gel at 4°C for 1.5 h as described previously [50]–[51].

T1 sequence (P27695 whole entry, the tested form may be a part): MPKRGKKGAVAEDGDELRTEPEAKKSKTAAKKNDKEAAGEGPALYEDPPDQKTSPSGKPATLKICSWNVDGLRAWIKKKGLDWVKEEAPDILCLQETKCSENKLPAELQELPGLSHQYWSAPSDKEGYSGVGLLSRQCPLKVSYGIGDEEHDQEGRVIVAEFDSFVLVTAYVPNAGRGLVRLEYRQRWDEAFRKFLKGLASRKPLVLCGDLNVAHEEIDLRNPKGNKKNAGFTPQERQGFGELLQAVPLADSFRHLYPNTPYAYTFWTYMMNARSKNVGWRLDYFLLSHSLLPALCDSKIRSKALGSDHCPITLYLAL

Row | SMILES | Cleavage of APE1 (25 kDa fragment) (APE1 [1]) | De novo APE1 synthesis (APE1 [1]; 10 µg/ml cycloheximide 4 h pretreatment) | pIC50 (APE1 [2]) | Kinetics (mode) of inhibition, Lineweaver-Burke plot (APE1 [2]) | Inhibition of endonuclease activity of wild type APE1 (APE1 [2]; 100 µM lucanthone, 2 h, 37°C) | AP endonuclease activity of recombinant APE1 (APE1 [2]; 10-50 µM, 37°C, 2 h) | Inhibition of DNA binding capacity of APE1 (APE1 [3]) | pIC50 (APE1 [2]; read-out: IC50 for inhibition of APE1 incision of depurinated plasmid DNA)
1 | CCN(CC)CCNc1ccc(C)c2sc3ccccc3c(=O)c12 [lucanthone, 1-[2-diethylaminoethylamino]-4-methylthioxanthen-9-one] | induce cleavage of APE1 | not affected significantly | 5.30 | non-competitive inhibitor | corresponding inhibition of the endonuclease activity | corresponding decrease in AP endonuclease activity | marginally inhibited | –
2 | CCN(CC)CCNc1ccc(CO)c2sc3ccccc3c(=O)c12 [hycanthone] | induce cleavage of APE1 | – | – | – | – | – | not at all | 7.10
